Test results as given in US12122761B2, “2-azaspiro[3.4]octane derivatives as M4 agonists” (NOVARTIS AG, priority 2019, dated 2024).

What was measured:
[1] = target: T1, human cloned CHRM5 receptor (M5_CHO) (Homo sapiens, UniProt P08912); experiment: CHRM5 Ca++ Flux Assay (agonist mode, FDSS 7000EX); assay type: cell-based; details: for Emax: Percent Activity measured to EC100 of Carbachol, read-out: M5 FDSS PA; for EC50: agonist mode, geometric mean if tested more than once, read-out: M5 FDSS EC50
T1 construct: expressed in transfected cells; host or cells: CHO (M5_CHO)
T1 sequence (P08912 1-532): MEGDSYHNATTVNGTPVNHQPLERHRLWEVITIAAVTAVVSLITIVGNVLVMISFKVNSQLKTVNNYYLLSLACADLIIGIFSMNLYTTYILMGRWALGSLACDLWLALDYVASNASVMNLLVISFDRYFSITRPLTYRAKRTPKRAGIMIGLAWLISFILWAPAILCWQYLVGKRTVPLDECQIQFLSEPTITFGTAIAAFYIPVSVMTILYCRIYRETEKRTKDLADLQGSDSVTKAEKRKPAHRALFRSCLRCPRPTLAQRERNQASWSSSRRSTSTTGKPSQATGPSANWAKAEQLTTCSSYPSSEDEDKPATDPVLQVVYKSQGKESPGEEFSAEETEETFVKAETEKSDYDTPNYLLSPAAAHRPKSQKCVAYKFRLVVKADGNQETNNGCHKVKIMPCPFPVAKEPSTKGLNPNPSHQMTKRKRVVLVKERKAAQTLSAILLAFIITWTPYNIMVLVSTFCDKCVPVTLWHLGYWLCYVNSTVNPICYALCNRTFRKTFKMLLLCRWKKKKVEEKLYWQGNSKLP
Method in brief: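 Fluorescent intracellular Ca++ signal, recorded for 3 min, served as read-out for CHO-K1 cells stably carrying human M3 or M5 receptor. Triplicate 11-point dose responses were averaged and fitted to a four-parameter model, with percent activity referenced to the carbachol EC100.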

[2] = target: T2, human cloned CHRM4 receptor (M4_CHO cells) (Homo sapiens, UniProt P08173); experiment: CHRM4 Ca++ Flux Assay (agonist mode, FDSS 7000EX); assay type: cell-based; details: for Emax: Percent Activity, read-out: M4 FDSS PA; for EC50: geometric mean if tested more than once, read-out: M4 FDSS EC50
T2 construct: expressed in transfected cells; host or cells: CHO-K1
T2 sequence (P08173 1-479): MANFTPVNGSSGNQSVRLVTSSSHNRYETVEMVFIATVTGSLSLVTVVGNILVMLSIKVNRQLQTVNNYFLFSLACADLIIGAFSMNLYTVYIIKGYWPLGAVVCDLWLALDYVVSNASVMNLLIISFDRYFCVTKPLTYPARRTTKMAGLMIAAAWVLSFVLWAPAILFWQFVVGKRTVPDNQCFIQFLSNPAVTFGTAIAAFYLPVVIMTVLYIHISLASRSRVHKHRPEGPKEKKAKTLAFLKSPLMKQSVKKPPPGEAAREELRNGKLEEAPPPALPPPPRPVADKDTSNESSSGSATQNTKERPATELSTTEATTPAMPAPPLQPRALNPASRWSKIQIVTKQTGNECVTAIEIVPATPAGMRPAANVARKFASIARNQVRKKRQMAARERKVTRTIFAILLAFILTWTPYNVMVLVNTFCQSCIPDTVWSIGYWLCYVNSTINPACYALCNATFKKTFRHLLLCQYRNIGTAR
Method in brief: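 Agonist-mode response was expressed as percent of the Carbachol EC100 and fitted with four-parameter nonlinear regression over an 11-point triplicate dose series. Intracellular Ca++ was tracked for 3 min by fluorescent dye in CHO-K1 cells stably expressing human CHRM4. Cells were preincubated 60 min with 20 μM ATP in buffer containing 2.5 mM probenecid.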

SMILES | Emax [1] | EC50 [1] | Emax [2] | EC50 [2]
CC(C)(O)CCOc1ccccc1C1CCN([C@@H]2CCC3(C2)CN(C(=O)C2COC2)C3)CC1 [Example 7CC, (R)-(6-(4-(2-(3-hydroxy-3-methylbutoxy)phenyl)piperidin-1-yl)-2-azaspiro[3.4]octan-2-yl)(oxetan-3-yl)methanone] | 9% | 2010 nM | 46% | 5 nM
c1ccc(C2CCN([C@@H]3CCC4(C3)CN(c3nnco3)C4)CC2)c(C2CCOCC2)c1 [Example 2H, (R)-2-(6-(4-(2-(tetrahydro-2H-pyran-4-yl)phenyl)piperidin-1-yl)-2-azaspiro[3.4]octan-2-yl)-1,3,4-oxadiazole] | 0% | > 25000 nM | 83% | 3 nM
CC(C)(O)CCOc1ccccc1C1CCN([C@@H]2CCC3(C2)CN(c2nncs2)C3)CC1 [Example 3H, (R)-4-(2-(1-(2-(1,3,4-thiadiazol-2-yl)-2-azaspiro[3.4]octan-6-yl)piperidin-4-yl)phenoxy)-2-methylbutan-2-ol] | 0% | > 25000 nM | 48% | 8 nM
c1ccc(C2CCN([C@@H]3CCC4(C3)CN(c3nnco3)C4)CC2)c(CC2CCOCC2)c1 [Example 2L, (R)-2-(6-(4-(2-((tetrahydro-2H-pyran-4-yl)methyl)phenyl)piperidin-1-yl)-2-azaspiro[3.4]octan-2-yl)-1,3,4-oxadiazole] | 0% | > 25000 nM | 77% | 11 nM
c1ccc(C2CCN([C@@H]3CCC4(C3)CN(c3nncs3)C4)CC2)c(OCC2CCOCC2)c1 [Example 1I, (R)-2-(6-(4-(2-((tetrahydro-2H-pyran-4-yl)methoxy)phenyl)piperidin-1-yl)-2-azaspiro[3.4]octan-2-yl)-1,3,4-thiadiazole] | 0% | > 25000 nM | 61% | 4 nM
c1ccc(C2CCN([C@@H]3CCC4(C3)CN(c3cncnc3)C4)CC2)c(OC2CCOCC2)c1 [Example 1L, (R)-2-(pyrimidin-5-yl)-6-(4-(2-((tetrahydro-2H-pyran-4-yl)oxy)phenyl)piperidin-1-yl)-2-azaspiro[3.4]octane] | 0% | > 25000 nM | 67% | 2 nM
c1ccc(C2CCN([C@@H]3CCC4(C3)CN(c3nnco3)C4)CC2)c(OCC2CCOCC2)c1 [Example 2G, (R)-2-(6-(4-(2-((tetrahydro-2H-pyran-4-yl)methoxy)phenyl)piperidin-1-yl)-2-azaspiro[3.4]octan-2-yl)-1,3,4-oxadiazole] | 0% | > 25000 nM | 70% | 7 nM
FC1(COc2ccccc2C2CCN([C@@H]3CCC4(C3)CN(c3nnco3)C4)CC2)CCOCC1 [Example 2D, (R)-2-(6-(4-(2-((4-fluorotetrahydro-2H-pyran-4-yl)methoxy)phenyl)piperidin-1-yl)-2-azaspiro[3.4]octan-2-yl)-1,3,4-oxadiazole] | 0% | > 25000 nM | 72% | 1 nM
c1ccc(C2CCN([C@@H]3CCC4(C3)CN(c3nnco3)C4)CC2)c(O[C@@H]2CCOC2)c1 [Example 2B, 2-((R)-6-(4-(2-(((R)-tetrahydrofuran-3-yl)oxy)phenyl)piperidin-1-yl)-2-azaspiro[3.4]octan-2-yl)-1,3,4-oxadiazole] | 0% | > 25000 nM | 95% | < 0.4 nM
c1ccc(C2CCN([C@@H]3CCC4(C3)CN(c3nncs3)C4)CC2)c(OC[C@H]2COCCO2)c1 [Example 3B, 2-((R)-6-(4-(2-(((R)-1,4-dioxan-2-yl)methoxy)phenyl)piperidin-1-yl)-2-azaspiro[3.4]octan-2-yl)-1,3,4-thiadiazole] | 0% | > 25000 nM | 70% | 1 nM
c1ccc(C2CCN([C@@H]3CCC4(C3)CN(c3cncnc3)C4)CC2)c(OCC2CCOCC2)c1 [Example 1M, (R)-2-(pyrimidin-5-yl)-6-(4-(2-((tetrahydro-2H-pyran-4-yl)methoxy)phenyl)piperidin-1-yl)-2-azaspiro[3.4]octane] | 0% | > 25000 nM | 53% | 3 nM
COCCOc1ccccc1C1CCN([C@@H]2CCC3(C2)CN(c2nnco2)C3)CC1 [Example 2C] | 0% | > 25000 nM | 72% | 1 nM
COCCOc1ccccc1C1CCN([C@@H]2CCC3(C2)CN(c2ncns2)C3)CC1 [Example 3J, (R)-5-(6-(4-(2-(2-methoxyethoxy)phenyl)piperidin-1-yl)-2-azaspiro[3.4]octan-2-yl)-1,2,4-thiadiazole] | 0% | > 25000 nM | 57% | 4 nM
c1ccc(C2CCN([C@@H]3CCC4(C3)CN(c3nncs3)C4)CC2)c(OC[C@@H]2COCCO2)c1 [Example 3C, 2-((R)-6-(4-(2-(((S)-1,4-dioxan-2-yl)methoxy)phenyl)piperidin-1-yl)-2-azaspiro[3.4]octan-2-yl)-1,3,4-thiadiazole] | 0% | > 25000 nM | 66% | 2 nM

More lines, now with the values ahead:

Emax [1] | EC50 [1] | Emax [2] | EC50 [2] | SMILES
0% | > 25000 nM | 90% | 1 nM | Fc1cccc(C2CCN([C@@H]3CCC4(C3)CN(c3cncnc3)C4)CC2)c1OC1COC1 [Example 5W, (R)-6-(4-(3-fluoro-2-(oxetan-3-yloxy)phenyl)piperidin-1-yl)-2-(pyrimidin-5-yl)-2-azaspiro[3.4]octane]
0% | > 25000 nM | 67% | 170 nM | c1ccc(C2CCN([C@H]3CCC4(C3)CN(c3nnco3)C4)CC2)c(C2CCOCC2)c1 (single isomer, unassigned) [Example 10T]
0% | > 25000 nM |  | 1 nM | COc1ccc(F)cc1C1CCN([C@@H]2CCC3(C2)CN(C(=O)C2COC2)C3)CC1 [Example 6A, (R)-(6-(4-(5-fluoro-2-methoxyphenyl)piperidin-1-yl)-2-azaspiro[3.4]octan-2-yl)(oxetan-3-yl)methanone]
0% | > 25000 nM | 84% | 22 nM | Fc1ccc(N2CC3(CC[C@@H](N4CCC(c5ccccc5C5CCOCC5)CC4)C3)C2)cn1 [Example 5CC, (R)-2-(6-fluoropyridin-3-yl)-6-(4-(2-(tetrahydro-2H-pyran-4-yl)phenyl)piperidin-1-yl)-2-azaspiro[3.4]octane]
0% | > 25000 nM | 0% | > 25000 nM | COCCOc1ccccc1C1CCN([C@@H]2CCC3(C2)CN(c2cnc(C)cn2)C3)CC1 [Example 5Y, (R)-6-(4-(2-(2-methoxyethoxy)phenyl)piperidin-1-yl)-2-(5-methylpyrazin-2-yl)-2-azaspiro[3.4]octane]
9% | 935 nM | 49% | 2 nM | O=C(C1COC1)N1CC2(CC[C@@H](N3CCC(c4ccccc4OCC(F)F)CC3)C2)C1 [Example 7JJ, (R)-(6-(4-(2-(2,2-difluoroethoxy)phenyl)piperidin-1-yl)-2-azaspiro[3.4]octan-2-yl)(oxetan-3-yl)methanone]
0% | > 25000 nM | 61% | 6 nM | O=C(C1COC1)N1CC2(CC[C@@H](N3CCC(c4ccccc4OCCOC4COC4)CC3)C2)C1 [Example 7EE, (R)-oxetan-3-yl(6-(4-(2-(2-(oxetan-3-yloxy)ethoxy)phenyl)piperidin-1-yl)-2-azaspiro[3.4]octan-2-yl)methanone]
0% | > 25000 nM | 49% | 28 nM | CC(C)(O)COc1ccccc1C1CCN([C@@H]2CCC3(C2)CN(c2ncncn2)C3)CC1 [Example 5U, (R)-1-(2-(1-(2-(1,3,5-triazin-2-yl)-2-azaspiro[3.4]octan-6-yl)piperidin-4-yl)phenoxy)-2-methylpropan-2-ol]
